Test results: patent US9216962B2 (priority 2011, dated 2015)

molecular target: recombinant human HDAC1 (Homo sapiens (Human), UniProt Q13547); details: not given
Sequence (Q13547 whole entry): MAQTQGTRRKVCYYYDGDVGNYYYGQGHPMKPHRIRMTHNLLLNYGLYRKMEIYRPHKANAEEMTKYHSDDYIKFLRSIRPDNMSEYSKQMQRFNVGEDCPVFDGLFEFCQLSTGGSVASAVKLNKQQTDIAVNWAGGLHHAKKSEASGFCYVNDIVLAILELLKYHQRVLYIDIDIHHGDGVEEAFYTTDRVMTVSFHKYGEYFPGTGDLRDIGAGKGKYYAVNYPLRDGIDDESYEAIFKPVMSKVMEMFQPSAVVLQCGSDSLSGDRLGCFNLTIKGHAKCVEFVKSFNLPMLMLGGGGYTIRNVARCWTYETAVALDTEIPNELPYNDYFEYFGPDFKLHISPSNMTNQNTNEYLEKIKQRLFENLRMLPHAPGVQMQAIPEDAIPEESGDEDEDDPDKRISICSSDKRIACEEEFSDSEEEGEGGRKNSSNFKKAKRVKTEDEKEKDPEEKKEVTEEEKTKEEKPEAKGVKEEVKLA

Compound | HDAC1 IC50
CC(C)Cc1sc(-c2nccs2)nc1C(=O)NCC(=O)NO [CFH340] | NA^a

same assay, conditions: read-out: HDAC1 IC50

Compound | IC50 [nM]
C=Cc1sc(-c2nccs2)nc1C(=O)NCCCNC(=O)CS [CFH367-S] | 1830
Cc1nc(-c2nc(C(=O)NCCCCC(=O)NO)c(C3CC3)s2)sc1C [CFH395-M] | 50
Cc1cnc(-c2nc(C(=O)NCCCCC(=O)NO)c(CC(C)C)s2)s1 [CFH397-2] | 917
Cc1nc(-c2nc(C(=O)NCCCCC(=O)NO)c(CC(C)C)s2)cs1 [CFH397] | 438
CC(C)Cc1sc(-c2nccs2)nc1C(=O)NCCCCCCC(=O)NO [CFH410] | 178
CC(C)/C=C/c1sc(-c2nccs2)nc1C(=O)NCCCNC(=O)CS [CFH411] | 956
CC(C)Cc1sc(-c2nccs2)nc1C(=O)Nc1cccc(/C=C/C(=O)NO)c1 [CFH429] | 657
O=C(CCCCNC(=O)c1nc(-c2ncc(-c3ccccc3)s2)sc1C1CC1)NO [CFH443-5] | 32
CC(C)Cc1sc(-c2nccs2)nc1C(=O)NCCCCC(=O)Nc1ccccc1N [CFH494] | 5910
CC(C)Cc1sc(-c2nccs2)nc1C(=O)NCCCCCC(=O)Nc1ccccc1N [CFH508] | 984
CC(C)Cc1sc(-c2nccs2)nc1C(=O)NCCCCCCC(=O)Nc1ccccc1N [CFH522] | 15300
